The source of these data is US7449463B2, “Morpholinyl containing benzimidazoles as inhibitors of respiratory syncytial virus replication” (Tibotec Pharmaceuticals Ltd., priority 2003, dated 2008).

The subject of data set [1] is Respiratory Syncytial Virus. The data set is described as follows: microbe, parasite or virus in culture. It is filed as cell-based. The note with it: for EC50: human respiratory syncytial virus. The procedure, abridged:
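HeLa cells infected with ~100 TCID50 RSV in Eagle's Basal Medium with 5% FCS, five-fold compound dilutions, 37° C, 5% CO2 for 7 days. Viability by MTT (A540 minus A690); EC50 for protection against cytopathic effect and CC50 from mock-infected wells, SI = CC50/EC50.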

Setting [2] is: 168 h, RSV-infected HeLa cells, MTT readout seven days after infection, −log of EC50 in molar units.
Setting [3] is: pEC50 (−log of EC50 when expressed in molar units), protection against RSV cytopathology.
Where [4] appears, read: RSV-infected HeLa cells, MTT readout seven days after infection, −log of EC50 in molar units.

A value given as a limit tells only on which side of the number the result lay.

Consider `Cc1cc(C)cc(N(CCCC(=O)O)Cc2ccc3nc(NCCCN4CCOCC4)n(Cc4nc(C)ccc4O)c3c2)c1` [Compound 62, 4-{(3,5-dimethyl-phenyl)-[3-(3-hydroxy-6-methyl-pyridin-2-ylmethyl)-2-(3-morpholin-4-yl-propylamino)-3H-benzoimidazol-5-ylmethyl]-amino}-butyric acid], for which the melting point turned out to be 121 °C. A half-maximal effect in data set [1] (setting [2]) (EC50) was put at 0.398 nM.

Turning to `Cc1ccc(S(=O)(=O)CCO)c(NCc2ccc3nc(NCCCN4CCOCC4)n(Cc4nc(C)ccc4O)c3c2)c1` [Compound 12], the melting point turned out to be 170 °C. In data set [1] (setting [2]), this compound had an EC50 of 0.251 nM.

In turn, `Cc1cc(C)cc(NC(=O)c2ccc3nc(NCCCN4CCOCC4)n(Cc4nc(C)ccc4O)c3c2)c1` [Compound 160] came in with a melting point of 172 °C. The EC50 in data set [1] (setting [2]) is over 10000 nM.

As to `Cc1ccc(O)c(Cn2c(NCCCN3CCOCC3)nc3ccc(Cc4c(C)cc(NCCO)cc4C)cc32)n1` [Compound 143, 2-[6-[4-(2-hydroxy-ethylamino)-2,6-dimethylbenzyl]-2-(3-morpholin-4-yl-propylamino)-benzoimidazol-1-ylmethyl]-6-methyl-pyridin-3-ol], the melting point was 162 °C. In addition, a half-maximal response in data set [1] (setting [2]) (EC50) required 10 nM.

As to `Cc1cccc(NC(=O)c2ccc3nc(NCCCN4CCOCC4)n(Cc4nc(C)ccc4O)c3c2)c1` [Compound 159], the melting point is 168 °C. The EC50 in data set [1] (setting [2]) is 20000 nM.

Take `Cc1cccc(NC(=O)c2ccc3c(c2)nc(NCCCN2CCOCC2)n3Cc2nc(C)ccc2O)c1` [Compound 158]: the melting point came to 170 °C. The same compound had an EC50 in data set [1] (setting [2]) of over 100000 nM.

With `CCOC(=O)CCCN(Cc1ccc2nc(NCCCN3CCOCC3)n(Cc3nc(C)ccc3O)c2c1)c1cc(C)cc(C)c1` [Compound 71, 4-{(3,5-dimethyl-phenyl)-[3-(3-hydroxy-6-methyl-pyridin-2-ylmethyl)-2-(3-morpholin-4-yl-propylamino)-3H-benzoimidazol-5-ylmethyl]-amino}-butyric acid ethyl ester], the melting point worked out at 130 °C. For the same compound, the EC50 in data set [1] (setting [2]) was 2.51 nM.

`Cc1cc(C)cc(N(CCN)Cc2ccc3nc(NCCCN4CCOCC4)n(Cc4nc(C)ccc4O)c3c2)c1` [Compound 66, 2-[6-{[(2-amino-ethyl)-(3,5-dimethyl-phenyl)-amino]-methyl}-2-(3-morpholin-4-yl-propylamino)-benzoimidazol-1-ylmethyl]-6-methyl-pyridin-3-ol] had a melting point of 196 °C. The compound also showed an EC50 in data set [1] (setting [2]) of 1.26 nM.

As for `Cc1cc(C)cc(NCc2ccc3nc(NCCCN4CCOCC4)n(Cc4nc(C)ccc4O)c3c2)c1` [Compound 23, 2-[6-[(3,5-dimethyl-phenylamino)-methyl]-2-(3-morpholin-4-yl-propylamino)-benzoimidazol-1-ylmethyl]-6-methyl-pyridin-3-ol], the melting point stood at 199 °C. The compound further had an EC50 in data set [1] (setting [2]) of 1 nM.

Regarding `Cc1cc(C)c2nc(NCCCN3CCOC(CC(N)=O)C3)n(Cc3nc(C)ccc3O)c2c1` (stereo not drawn) [Compound 191, 2-(4-{3-[1-(3-Hydroxy-6-methyl-pyridin-2-ylmethyl)-4,6-dimethyl-1H-benzoimidazol-2-ylamino]-propyl}-morpholin-2-yl)-acetamide], the melting point was determined as 148 °C. In data set [1] (setting [2]), this compound gave an EC50 of 158 nM.

As to `Cc1cc(C)c2nc(N(CCN3CCOCC3)C3CCNCC3)n(Cc3nc(C)ccc3O)c2c1` [Compound 170, 2-[4,6-dimethyl-2-(2-morpholin-4-ylethyl-piperidin-4-ylamino)-benzoimidazol-1-ylmethyl]-6-methyl-pyridin-3-ol], the melting point stood at 237 °C. This compound also showed an EC50 in data set [1] (setting [2]) of 794 nM.

For the compound `Cc1ccc(CCCO)c(NCc2ccc3nc(NCCCN4CCOCC4)n(Cc4cc(Br)ccc4O)c3c2)c1` [Compound 201, 4-Bromo-2-[6-{[2-(3-hydroxy-propyl)-5-methyl-phenylamino]-methyl}-2-(3-morpholin-4-yl-propylamino)-benzoimidazol-1-ylmethyl]-phenol], the melting point turned out to be 134 °C. Besides, the EC50 in data set [1] (setting [3]) was 0.501 nM.

On to `COc1ccc(C)nc1Cn1c(NCCCN2CCOCC2)nc2ccc(CNc3cc(C)ccc3CCCO)cc21` [Compound 219, 3-(2-{[3-(3-Methoxy-6-methyl-pyridin-2-ylmethyl)-2-(3-morpholin-4-yl-propylamino)-3H-benzoimidazol-5-ylmethyl]-amino}-4-methyl-phenyl)-propan-1-ol], for which the melting point was found to be 132 °C. The same compound showed an EC50 in data set [1] (setting [3]) of 2.51 nM.

Turning to `Cc1cc(C)cc(N(CCCC(N)=O)Cc2ccc3nc(NCCCN4CCOCC4)n(Cc4cccc5c4ncn5C)c3c2)c1` [Compound 230, 4-{(3,5-Dimethyl-phenyl)-[3-(1-methyl-1H-benzoimidazol-4-ylmethyl)-2-(3-morpholin-4-yl-propylamino)-3H-benzoimidazol-5-ylmethyl]-amino}-butyramide], the melting point came to 206 °C. Also, the EC50 in data set [1] (setting [3]) was 3.98 nM.

`Cc1ccc(CCCO)c(NCc2ccc3nc(NCCCN4CCOCC4)n(Cc4cccc(Br)n4)c3c2)c1` [Compound 267, 3-(2-{[3-(6-Bromo-pyridin-2-ylmethyl)-2-(3-morpholin-4-yl-propylamino)-3H-benzoimidazol-5-ylmethyl]-amino}-4-methyl-phenyl)-propan-1-ol]: the melting point came to 141 °C. Also, a half-maximal effect in data set [1] (setting [3]) (EC50) was put at 50.1 nM.

The compound `Cc1ccc(CCO)c(NCc2ccc3nc(NCCCN4CCOCC4)n(Cc4ncccc4O)c3c2)c1` [Compound 192, 2-[6-{[2-(2-Hydroxy-ethyl)-5-methyl-phenylamino]-methyl}-2-(3-morpholin-4-yl-propylamino)-benzoimidazol-1-ylmethyl]-pyridin-3-ol] had a melting point of 192 °C. The compound further had an EC50 in data set [1] (setting [3]) of 0.501 nM.

Regarding `Cc1ccc(CCCO)c(NCc2ccc3nc(NCCCN4CCOCC4)n(Cc4cccc5cccnc45)c3c2)c1` [Compound 234, 3-(4-Methyl-2-{[2-(3-morpholin-4-yl-propylamino)-3-quinolin-8-ylmethyl-3H-benzoimidazol-5-ylmethyl]-amino}-phenyl)-propan-1-ol], the melting point is 165 °C. This compound gave an EC50 in data set [1] (setting [3]) of 5.01 nM.

Compound `Cc1ccc(CCO)c(NCc2ccc3nc(NCCCN4CCOCC4)n(C4CCCc5nc(C)c(C)nc54)c3c2)c1` (stereo not drawn) [Compound 193, 2-(2-{[3-(2,3-Dimethyl-5,6,7,8-tetrahydroquinoxalin-5-yl)-2-(3-morpholin-4-yl-propylamino)-3H-benzoimidazol-5-ylmethyl]-amino}-4-methyl-phenyl)-ethanol] displayed a melting point of 162 °C. In data set [1] (setting [3]), this compound gave a concentration giving a half-maximal response (EC50) of 0.501 nM.

`Cc1cc(C)cc(NCc2ccc3nc(NCC(O)CN4CCOCC4)n(Cc4nc(C)ccc4O)c3c2)c1` (stereo not drawn) [Compound 171, 2-[6-[(3,5-dimethyl-phenylamino)-methyl]-2-(2-hydroxy-3-morpholin-4-yl-propyl-amino)-benzoimidazol-1-ylmethyl]-6-methyl-pyridin-3-ol] returned a melting point of 198 °C. In data set [1] (setting [2]), this compound showed an EC50 of 2.51 nM.

For `Cc1ccc2c(c1)N(Cc1ccc3nc(NCCCN4CCOCC4)n(Cc4nc(C)ccc4O)c3c1)CC2` [Compound 153], the melting point was found to be 212 °C. For the same compound, the EC50 in data set [1] (setting [2]) is 50.1 nM.

As for `Cc1ccc(O)c(Cn2c(NCCCN3CCOCC3)nc3ccc(CNc4c(C)cc(CCC#N)cc4C)cc32)n1` [Compound 49, 3-(4-{[3-(3-hydroxy-6-methyl-pyridin-2-ylmethyl)-2-(3-morpholin-4-yl-propylamino)-3H-benzoimidazol-5-ylmethyl]-amino}-3,5-dimethyl-phenyl)-propionitrile], the melting point worked out at 114 °C. The EC50 in data set [1] (setting [2]) was 39.8 nM.

The compound `Cc1ccc(O)c(Cn2c(NC3CCNC(CCN4CCOCC4)C3)nc3ccc(C=Cc4ccccc4)cc32)n1` (stereo not drawn) [Compound 169, 6-methyl-2-{2-[2-(2-morpholin-4-yl-ethyl)-piperidin-4-ylamino]-6-styryl-benzoimidazol-1-ylmethyl}-pyridin-3-ol] showed a melting point of 224 °C. This compound also showed an EC50 in data set [1] (setting [2]) of 631 nM.

`Cc1cc(C)cc(N(CCC(=O)O)Cc2ccc3nc(NCCCN4CCOCC4)n(Cc4nc(C)ccc4O)c3c2)c1` [Compound 69]: the Activity in data set [1] (setting [4]) is given as 8.7.

`Cc1ccc(CCCO)c(NCc2ccc3nc(NCCCN4CCOCC4)n(Cc4ccccc4O)c3c2)c1` [Compound 227]: the Activity in data set [1] (setting [3]) stood at 8.5.

The compound `Cc1nc(C)c(Cn2c(NCCCN3CCOCC3)nc3ccc(CNc4cc(Cl)cc(Cl)c4)cc32)nc1C` [Compound 289] registered an Activity in data set [1] (setting [3]) of 7.

As to `Cc1ccc(CCCO)c(NCc2ccc3c(c2)nc(NCCCN2CCOCC2)n3Cc2cccc(C)n2)c1` [Compound 350], in data set [1] (setting [3]), the Activity amounted to 4.7.

`Cc1ccc(O)c(Cn2c(NC3CCN(CCN4CCOCC4)CC3)nc3cc(/C=C/c4ccccc4)ccc32)n1` [Compound 167] yielded an Activity in data set [1] (setting [4]) of 6.7.

In turn, `Cc1cccc(Cn2c(NCCCN3CCOCC3)nc3ccc(CNc4cccc(C)c4CO)cc32)n1` [Compound 347] registered an Activity in data set [1] (setting [3]) of 4.9.

Take `Cc1cc(C)cc(N(CCCCCO)Cc2ccc3nc(NCCCN4CCOCC4)n(Cc4nc(C)ccc4O)c3c2)c1` [Compound 64]: the Activity in data set [1] (setting [4]) is 9.3.

For `OCc1ccc2c(c1)nc(NCCCN1CCOCC1)n2Cc1cccc(Br)n1` [Compound 294], the Activity in data set [1] (setting [3]) came out at 6.9.

Compound `Cc1ccc(O)c(Cn2c(NCCCN3CCOCC3)nc3ccc(CNc4ccccc4C(N)=O)cc32)n1` [Compound 45] yielded an Activity in data set [1] (setting [4]) of 7.9.

In the case of `OCCCc1ccc(C(F)(F)F)cc1NCc1ccc2nc(NCCCN3CCOCC3)n(Cc3ncccc3O)c2c1` [Compound 216], the Activity in data set [1] (setting [3]) amounted to 8.7.

Broadly, the melting point is the temperature, or range, at which the solid turns liquid. The EC50 is the concentration giving half of the maximal effect. High values mean lower potency in that assay, low ones higher potency in that assay.
